This data set has as its system cancer cells. Kind of data set: MTT cytotoxic assay of esterification products (Cytotoxicity activity). It counts as cell-based, human. In outline:
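Cytotoxicity was read by MTT (Carmichael method, modified), with cells seeded 24 h ahead of treatment. Sixteen human cancer lines spanning bone, lung, bladder, ovary, colon, pancreas, prostate, skin, mouth, kidney, breast, liver, brain, leukemia and cervix were used. Test samples were acyl chloride esterification products of triterpenes, as mixtures or HPLC-purified compounds.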
(In general: Tetrazolium dyes change colour on reduction, which living cells bring about.)

The mark [1] stands for this setting: esterification products isolated with HPLC, graded strong / moderate / weak.
Setting [2] is: MTT cytotoxic assay, isolated esterification products of E4A.
Setting [3] is: E4A esterified with Crotonoyl chloride (Cro = Crotonoyl), compounds isolated with HPLC.
Setting [4] is: E4A esterified with 2-propenoyl chloride (Ppe = Propenoyl), compounds isolated with HPLC.
Setting [5] is: E4A esterified with Propionyl chloride (Ppi = Propionyl), compounds isolated with HPLC.
Setting [6] is: E4A esterified with benzoyl chloride (Ben = benzoyl), compounds isolated with HPLC.
The mark [7] stands for this setting: esterification products of core compound E4A with (2E)-2-pentenoyl chloride (2pe = 2-pentenoyl).
Where [8] appears, read: esterification products of core compound E4A with Butyryl chloride (But = Butyryl).
Setting [9] is: esterification products of core compound E4A with Decanoyl chloride (Dec = Decanoyl).
Setting [10] is: esterification products of core compound E4A with Isobutyryl chloride (Iso = Isobutyryl).
Setting [11] is: esterification products of core compound E4A with Myristoyl chloride (Myr = Myristoyl).
Setting [12] is: esterification products of core compound E4A with Octanoyl chloride (Oct = Octanoyl).
[13] abbreviates: E4A esterified with Acetyl chloride (Acy = Acetyl), compounds isolated with HPLC.

On to `CC=C(C)C(=O)OCC1(C)C(O)CCC2(C)C1CCC1(C)C2CC=C2C3CC(C)(C)C(OC(=O)C=Cc4ccccc4)C(O)C3(CO)C(O)CC21C` (stereo not drawn) [Tig—Cin—5], for which, under setting [1], the Cytotoxicity activity result was “moderate”.
`CC=C(C)C(=O)OCC1(C)C(OC(=O)C(C)=CC)CCC2(C)C1CCC1(C)C2CC=C2C3CC(C)(C)C(OC(=O)C(C)=CC)C(O)C3(COC(=O)C(C)=CC)C(O)CC21C` (stereo not drawn) [Tig—R—Ang—5]: the Cytotoxicity activity result under setting [1] is “weak”.
For `CC=C(C)C(=O)OCC1(C)C(O)CCC2(C)C1CCC1(C)C2CC=C2C3CC(C)(C)C(O)C(OC(=O)C(CC)CC)C3(CO)C(O)CC21C` (stereo not drawn) [Tig—Eth—6], under setting [1], the Cytotoxicity activity entry is on record as “moderate”.
`CCC(CC)C(=O)OCC1(C)C(OC(=O)C(CC)CC)CCC2(C)C1CCC1(C)C2CC=C2C3CC(C)(C)C(O)C(OC(=O)C(CC)CC)C3(COC(=O)C(CC)CC)C(O)CC21C` (stereo not drawn) [Compound E14]: the Cytotoxicity activity result under setting [2] is “weak”.
Take `C=CCCC(=O)OC1C(OC(=O)CCC=C)C2(CO)C(OC(=O)CCC=C)CC3(C)C(=CCC4C5(C)CCC(O)C(C)(CO)C5CCC43C)C2CC1(C)C` (stereo not drawn) [Compound C22]: the Cytotoxicity activity result under setting [2] is “moderate”.
Regarding `CC(C)=CC(=O)OCC1(C)C(O)CCC2(C)C1CCC1(C)C2CC=C2C3CC(C)(C)C(OC(=O)C=C(C)C)C(OC(=O)C=C(C)C)C3(CO)C(O)CC21C` (stereo not drawn) [Compound B21], under setting [2], the Cytotoxicity activity entry is recorded as “moderate”.
On to `CCCCCC(=O)OCC1(C)C(O)CCC2(C)C1CCC1(C)C2CC=C2C3CC(C)(C)C(O)C(O)C3(CO)C(OC(=O)CCCCC)CC21C` (stereo not drawn) [Compound D32], for which the Cytotoxicity activity entry under setting [2] is reported as “moderate”.
The same measure, in the same setting: in the case of `CC(C)=CC(=O)OCC12C(O)CC3(C)C(=CCC4C5(C)CCC(O)C(C)(CO)C5CCC43C)C1CC(C)(C)C(O)C2O` (stereo not drawn) [Compound B2] it was “moderate”.
Take `C=CCCC(=O)OCC1(C)C(O)CCC2(C)C1CCC1(C)C2CC=C2C3CC(C)(C)C(O)C(O)C3(COC(=O)CCC=C)C(O)CC21C` (stereo not drawn) [Compound C3]: the Cytotoxicity activity entry under setting [2] is “strong”.
For the molecule `CC=C(C)C(=O)OCC1(C)C(O)CCC2(C)C1CCC1(C)C2CC=C2C3CC(C)(C)C(O)C(OC(=O)C=Cc4ccccc4)C3(COC(=O)C(C)=CC)C(O)CC21C` (stereo not drawn) [Tig—R—Cin—3], the Cytotoxicity activity result under setting [1] is listed as “moderate”.
For the molecule `CC=C(C)C(=O)OCC1(C)C(O)CCC2(C)C1CCC1(C)C2CC=C2C3CC(C)(C)C(O)C(O)C3(COC(=O)C(C)=CC)C(O)CC21C` (stereo not drawn) [Compound A3], the Cytotoxicity activity entry under setting [2] was “strong”.
Consider `C/C=C(\C)C(=O)OC[C@]1(C)C2CC[C@]3(C)C(CC=C4C5CC(C)(C)[C@@H](O)[C@H](O)[C@]5(COC(=O)C=C(C)C)[C@H](O)C[C@]43C)[C@@]2(C)CC[C@@H]1O` (stereo partly drawn) [E4A-Tig-Sen-1], for which the Cytotoxicity activity result (esterification products of E4A—Tig—N with senecioyl chloride) was “strong”.
For `CC=CC(=O)OCC1(C)C(O)CCC2(C)C1CCC1(C)C2CC=C2C3CC(C)(C)C(OC(=O)C=CC)C(O)C3(COC(=O)C=CC)C(OC(=O)C=CC)CC21C` (stereo not drawn) [Compound I13], the Cytotoxicity activity entry under setting [3] was “weak”.
In the case of `C=CCCC(=O)OCC1(C)C(OC(=O)CCC=C)CCC2(C)C1CCC1(C)C2CC=C2C3CC(C)(C)C(O)C(OC(=O)CCC=C)C3(COC(=O)CCC=C)C(O)CC21C` (stereo not drawn) [Compound C14], under setting [2], the Cytotoxicity activity result is given as “weak”.
As for `CCC(CC)C(=O)OCC1(C)C(O)CCC2(C)C1CCC1(C)C2CC=C2C3CC(C)(C)C(O)C(O)C3(CO)C(O)CC21C` (stereo not drawn) [Compound E1], under setting [2], the Cytotoxicity activity result is reported as “moderate”.
`CC=C(C)C(=O)OCC1(C)C(O)CCC2(C)C1CCC1(C)C2CC=C2C3CC(C)(C)C(O)C(O)C3(COC(C)=O)C(O)CC21C` (stereo not drawn) [Tig—Acy—1]: under setting [1], the Cytotoxicity activity result is given as “strong”.
As to `CC=C(C)C(=O)OCC12C(O)CC3(C)C(=CCC4C5(C)CCC(O)C(C)(CO)C5CCC43C)C1CC(C)(C)C(OC(=O)C(C)=CC)C2OC(=O)C(C)=CC` (stereo not drawn) [Compound A20], the Cytotoxicity activity entry under setting [2] was “moderate”.
In the case of `CC1(C)CC2C3=CCC4C5(C)CCC(OC(=O)c6ccccc6)C(C)(COC(=O)c6ccccc6)C5CCC4(C)C3(C)CC(O)C2(COC(=O)c2ccccc2)C(OC(=O)c2ccccc2)C1O` (stereo not drawn) [Compound K14], the Cytotoxicity activity entry runs as follows: under setting [4], “weak”; under setting [5], “weak”; under setting [6], “weak”; under setting [7], “weak”; under setting [8], “weak”; under setting [9], “weak”. Also, the Cytotoxicity activity entry runs as follows: under setting [10], “weak”; under setting [11], “weak”; under setting [12], “weak”.
`CC(=O)OCC12C(O)CC3(C)C(=CCC4C5(C)CCC(O)C(C)(CO)C5CCC43C)C1CC(C)(C)C(O)C2OC(C)=O` (stereo not drawn) [Compound H26]: the Cytotoxicity activity entry under setting [13] is “moderate”.
With `CCCCCC(=O)OC1C(OC(=O)CCCCC)C2(CO)C(O)CC3(C)C(=CCC4C5(C)CCC(OC(=O)CCCCC)C(C)(CO)C5CCC43C)C2CC1(C)C` (stereo not drawn) [Compound D23], the Cytotoxicity activity result under setting [2] was “moderate”.
As to `CC1(C)CC2C3=CCC4C5(C)CCC(OC(=O)C=Cc6ccccc6)C(C)(COC(=O)C=Cc6ccccc6)C5CCC4(C)C3(C)CC(O)C2(COC(=O)C=Cc2ccccc2)C(O)C1OC(=O)C=Cc1ccccc1` (stereo not drawn) [Compound J11], under “E4A esterified with Cinnamoyl chloride (Cin = Cinnamoyl), compounds isolated with HPLC”, the Cytotoxicity activity result is given as “weak”.
For the molecule `CC=C(C)C(=O)OCC1(C)C(O)CCC2(C)C1CCC1(C)C2CC=C2C3CC(C)(C)C(O)C(O)C3(COC(=O)C(CC)CC)C(O)CC21C` (stereo not drawn) [Tig—Eth—1], under setting [1], the Cytotoxicity activity entry was “strong”.
In the case of `CC=CC(=O)OCC1(C)C(O)CCC2(C)C1CCC1(C)C2CC=C2C3CC(C)(C)C(O)C(O)C3(CO)C(O)CC21C` (stereo not drawn) [Compound I1], the Cytotoxicity activity entry under setting [3] was “moderate”.
For the molecule `C=CCCC(=O)OC1CCC2(C)C(CCC3(C)C2CC=C2C4CC(C)(C)C(O)C(O)C4(COC(=O)C(C)=CC)C(O)CC23C)C1(C)COC(=O)C(C)=CC` (stereo not drawn) [Tig—R—Pen—4], under setting [1], the Cytotoxicity activity entry is listed as “moderate”.
On to `CC(C)=CC(=O)OCC1(C)C(O)CCC2(C)C1CCC1(C)C2CC=C2C3CC(C)(C)C(O)C(O)C3(CO)C(O)CC21C` (stereo not drawn) [Compound B1], for which, under setting [2], the Cytotoxicity activity result is recorded as “moderate”.
As for `C/C=C(/C)C(=O)OC[C@]1(C)[C@@H]2CC[C@]3(C)[C@H](CC=C4[C@@H]5CC(C)(C)[C@@H](O)[C@H](O)[C@]5(CO)[C@H](O)C[C@]43C)[C@@]2(C)CC[C@@H]1OC(=O)/C(C)=C\C` [Compound G31], the Cytotoxicity activity result under setting [2] was “moderate”.
As for `CCC(CC)C(=O)OCC1(C)C(O)CCC2(C)C1CCC1(C)C2CC=C2C3CC(C)(C)C(O)C(OC(=O)C(CC)CC)C3(COC(=O)C(CC)CC)C(OC(=O)C(CC)CC)CC21C` (stereo not drawn) [Compound E12], under setting [2], the Cytotoxicity activity result is “weak”.
Turning to `C=CCCC(=O)OCC1(C)C(O)CCC2(C)C1CCC1(C)C2CC=C2C3CC(C)(C)C(OC(=O)CCC=C)C(OC(=O)CCC=C)C3(CO)C(O)CC21C` (stereo not drawn) [Compound C21], the Cytotoxicity activity result under setting [2] was “moderate”.
Turning to `CC=CC(=O)OC1C(O)C2(COC(=O)C(C)=CC)C(O)CC3(C)C(=CCC4C5(C)CCC(O)C(C)(COC(=O)C(C)=CC)C5CCC43C)C2CC1(C)C` (stereo not drawn) [Tig—R—Cro—2], the Cytotoxicity activity result under setting [1] was “moderate”.
`CC=CC(=O)OCC1(C)C(O)CCC2(C)C1CCC1(C)C2CC=C2C3CC(C)(C)C(OC(=O)C=CC)C(O)C3(COC(=O)C=CC)C(O)CC21C` (stereo not drawn) [Compound I4]: the Cytotoxicity activity entry under setting [3] is “moderate”.
As to `CC(C)=CC(=O)OC1C(OC(=O)C=C(C)C)C2(CO)C(OC(=O)C=C(C)C)CC3(C)C(=CCC4C5(C)CCC(O)C(C)(CO)C5CCC43C)C2CC1(C)C` (stereo not drawn) [Compound B22], the Cytotoxicity activity result under setting [2] is on record as “moderate”.
In the case of `CC(C)=CC(=O)OCC1(C)C(OC(=O)C=C(C)C)CCC2(C)C1CCC1(C)C2CC=C2C3CC(C)(C)C(O)C(OC(=O)C=C(C)C)C3(COC(=O)C=C(C)C)C(O)CC21C` (stereo not drawn) [Compound B9], the Cytotoxicity activity result under setting [2] is recorded as “weak”.
In the case of `CC(C)=CC(=O)OCC1(C)C(O)CCC2(C)C1CCC1(C)C2CC=C2C3CC(C)(C)C(O)C(O)C3(CO)C(OC(=O)C=C(C)C)CC21C` (stereo not drawn) [Compound B32], the Cytotoxicity activity entry under setting [2] is on record as “moderate”.
As for `CC1(C)CC2C3=CCC4C5(C)CCC(OC(=O)c6ccccc6)C(C)(CO)C5CCC4(C)C3(C)CC(O)C2(COC(=O)c2ccccc2)C(O)C1O` (stereo not drawn) [Compound K27], the Cytotoxicity activity entry by setting is: under setting [4], “moderate”; under setting [5], “moderate”; under setting [6], “moderate”; under setting [7], “moderate”; under setting [8], “moderate”; under setting [9], “moderate”. For the same molecule, the Cytotoxicity activity entry reads like this: under setting [10], “moderate”; under setting [11], “moderate”; under setting [12], “moderate”.
As to `CC(=O)OCC1(C)C(O)CCC2(C)C1CCC1(C)C2CC=C2C3CC(C)(C)C(OC(C)=O)C(O)C3(COC(C)=O)C(OC(C)=O)CC21C` (stereo not drawn) [Compound H13], the Cytotoxicity activity result under setting [13] is reported as “weak”.
In the case of `CC=C(C)C(=O)OCC1(C)C(O)CCC2(C)C1CCC1(C)C2CC=C2C3CC(C)(C)C(O)C(OC(=O)C=Cc4ccccc4)C3(COC(=O)C=Cc3ccccc3)C(O)CC21C` (stereo not drawn) [Tig—Cin—3], the Cytotoxicity activity entry under setting [1] is on record as “moderate”.
On to `CC(C)=CC(=O)OCC1(C)C(O)CCC2(C)C1CCC1(C)C2CC=C2C3CC(C)(C)C(O)C(O)C3(COC(=O)C=C(C)C)C(OC(=O)C=C(C)C)CC21C` (stereo not drawn) [Compound B7], for which the Cytotoxicity activity entry under setting [2] is given as “moderate”.
Still for that read-out and setting: the entry for `CC(C)=CC(=O)OCC1(C)C(OC(=O)C=C(C)C)CCC2(C)C1CCC1(C)C2CC=C2C3CC(C)(C)C(O)C(O)C3(COC(=O)C=C(C)C)C(OC(=O)C=C(C)C)CC21C` (stereo not drawn) [Compound B10] is “weak”.

Values taken from US20230340012A1, “NATURAL AND SYNTHETIC COMPOUNDS FOR TREATING CANCER AND OTHER DISEASES” (PACIFIC ARROW LIMITED, priority 2009, published 2023).
